This is an account of results in patent US8048895B2, “Kappa opioid receptor ligands” (priority 2008, dated 2011).

Assay type in all cases: biochemical
For test [1], the target named is T1, cloned human κ opioid receptor (Homo sapiens, UniProt P41145).
T1 construct: expressed in transfected cells
Kind of test: Inhibition of U69,593-stimulated [35S]GTPγS binding. The text has this: (§1) Measures of opioid receptor antagonism and specificity were obtained by monitoring the ability of selected test compounds to inhibit stimulation of [^35S]GTPγS binding produced by the selective agonists (D-Ala^2, MePhe^4, Gly-ol^5)enkephalin (DAMGO, mu receptor), cyclo[D-Pen^2, D-Pen^5]enkephalin (DPDPE, delta) and 5,7,8-(−)-N-methyl-N-[7-(1-pyrrolidinyl)-1-oxaspiro[4,5]dec-8-yl]benzeneacetamide (U69,593, kappa) in cloned human receptors, Table 1.

Test [2] has as its target T2, cloned human μ opioid receptor (Homo sapiens, UniProt P35372).
T2 construct: expressed in transfected cells
The experiment in a line: Inhibition of DAMGO-stimulated [35S]GTPγS binding.
Text: as §1

Test [3] has as its target T3, cloned human δ opioid receptor (Homo sapiens, UniProt P41143).
T3 construct: expressed in transfected cells
The experiment in a line: Inhibition of DPDPE-stimulated [35S]GTPγS binding. The settings on record: read-out: δ, DPDPE Ke.
Text: as §1

Molecules are shown by their SMILES.

T1 sequence (P41145 whole entry): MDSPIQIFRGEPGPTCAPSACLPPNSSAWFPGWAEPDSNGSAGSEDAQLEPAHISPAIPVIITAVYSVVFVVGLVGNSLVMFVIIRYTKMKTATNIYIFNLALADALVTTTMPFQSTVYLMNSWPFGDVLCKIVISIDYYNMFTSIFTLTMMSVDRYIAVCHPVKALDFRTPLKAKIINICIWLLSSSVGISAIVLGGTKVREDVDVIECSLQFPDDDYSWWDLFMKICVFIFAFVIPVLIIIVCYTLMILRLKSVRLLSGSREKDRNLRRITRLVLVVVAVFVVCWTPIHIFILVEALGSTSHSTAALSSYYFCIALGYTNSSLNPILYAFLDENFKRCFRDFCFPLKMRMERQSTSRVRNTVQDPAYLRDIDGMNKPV
T2 sequence (P35372 whole entry): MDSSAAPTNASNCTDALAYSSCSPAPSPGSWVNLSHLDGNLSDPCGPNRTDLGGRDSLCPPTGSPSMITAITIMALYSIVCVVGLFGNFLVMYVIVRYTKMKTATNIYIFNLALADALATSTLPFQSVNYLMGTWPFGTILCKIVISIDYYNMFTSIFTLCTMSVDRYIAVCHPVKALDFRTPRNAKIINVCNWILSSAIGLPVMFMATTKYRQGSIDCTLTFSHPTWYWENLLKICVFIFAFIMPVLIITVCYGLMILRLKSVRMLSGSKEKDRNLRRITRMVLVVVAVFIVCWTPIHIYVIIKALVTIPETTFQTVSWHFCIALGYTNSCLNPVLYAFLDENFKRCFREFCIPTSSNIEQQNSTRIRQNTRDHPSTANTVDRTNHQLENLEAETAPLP
T3 sequence (P41143 whole entry): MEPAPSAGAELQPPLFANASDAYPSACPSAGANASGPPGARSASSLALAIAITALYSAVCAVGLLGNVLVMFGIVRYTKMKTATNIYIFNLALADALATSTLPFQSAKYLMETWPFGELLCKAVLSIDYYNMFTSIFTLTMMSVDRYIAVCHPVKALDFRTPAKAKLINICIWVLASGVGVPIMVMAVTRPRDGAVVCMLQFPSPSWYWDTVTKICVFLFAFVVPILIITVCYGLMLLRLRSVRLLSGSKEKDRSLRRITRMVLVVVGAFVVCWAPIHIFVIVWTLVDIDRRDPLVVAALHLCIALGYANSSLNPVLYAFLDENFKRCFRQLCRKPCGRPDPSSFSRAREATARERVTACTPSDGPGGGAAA

With `CC(C)[C@@H](CN1CC[C@@](C)(c2cccc(O)c2)[C@@H](C)C1)NC(=O)[C@@]1(C)Cc2ccc(O)cc2CN1` [RTI-5989-240, (3R)-7-Hydroxy-N-[(1S)-1-{[(3R,4R)-4-(3-hydroxyphenyl)-3,4-dimethylpiperidin-1-yl]methyl}-2-methylpropyl]-3-methyl-1,2,3,4-tetrahydroisoquinoline-3-carboxamide], the figures for the Kb in test [1], in test [2] and in test [3] were 0.03 nM, 3.6 nM and 840 nM, respectively. For the same molecule, in test [1] ([35S]GTPγS in vitro functional assay), the “potency for the kappa opioid receptor (in words)” value is “high potency”. Besides, the “selectivity for the kappa opioid receptor relative to mu and delta (in words)” value in test [1] (functional assay) was “highly selective”. For the same molecule, the “κ, U69,593 Ke” value in test [1] (inhibition of U69,593-stimulated [35S]GTPγS binding, cloned human κ receptor) is 0.03 nM. Besides, the δ/κ in test [1] (ratio of Ke values, δ over κ) was 28,000. The μ/κ in test [1] (ratio of Ke values, μ over κ) was 120. The “μ, DAMGO Ke” value in test [2] (inhibition of DAMGO-stimulated [35S]GTPγS binding, cloned human μ receptor) is recorded as 3.6 nM.
